Results taken from ChEMBL document CHEMBL1201862, “PubChem BioAssay data set” (2004).
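A five-concentration, 48-hour dose response in 96-well plates underlies each endpoint, interpolated linearly between surrounding concentrations. The concentration for 50% growth inhibition is given as GI50.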 Activity calls are given as the source filed them. No stated cut-off is given here; in the data, active = GI50 up to about 1.1 µM and inactive = higher.

Tests used:
Test in all cases: NCI anticancer screen, dose series, 48 h
NCI-H226 = test system: NCI-H226
Malme-3M = test system: Malme-3M
OVCAR-4 = test system: OVCAR-4
SF-295 = test system: SF-295
SK-MEL-2 = test system: SK-MEL-2
U-251 = test system: U-251
SK-MEL-28 = test system: SK-MEL-28
UACC-257 = test system: UACC-257
UACC-62 = test system: UACC-62
HCT-116 = test system: HCT-116
CAKI-1 = test system: CAKI-1
KM-20L2 = test system: KM-20L2
SNB-19 = test system: SNB-19
A498 = test system: A498
786-0 = test system: 786-0
MCF7 = test system: MCF7
T47D = test system: T47D
MDA-N = test system: MDA-N
BT-549 = test system: BT-549
Hs-578T = test system: Hs-578T

Measured: GI50

CN1C(=O)CN2C(Cl)(Cl)C2(c2ccccc2F)c2cc([N+](=O)[O-])ccc21 (stereo not given)
inactive: NCI-H226 16.2 µM | Malme-3M 18.4 µM | OVCAR-4 > 100 µM | SF-295 80.4 µM | SK-MEL-2 38.2 µM | U-251 57.1 µM | SK-MEL-28 > 100 µM | UACC-257 64.4 µM | UACC-62 28.6 µM | HCT-116 31.7 µM | CAKI-1 > 100 µM | KM-20L2 26.7 µM

CC1(O)C=CC2CCC1C2O (stereo not given)
inactive: NCI-H226 > 100 µM | Malme-3M > 100 µM | OVCAR-4 > 100 µM | SF-295 > 100 µM | SK-MEL-2 > 100 µM | U-251 > 100 µM | SNB-19 > 100 µM | SK-MEL-28 > 100 µM | UACC-257 > 100 µM | A498 > 100 µM | UACC-62 > 100 µM | 786-0 25.4 µM | HCT-116 19.7 µM | CAKI-1 > 100 µM | KM-20L2 50.9 µM

COc1ccc(OC)c2c1CC(C(=O)O)(C(=O)O)CC2=O
inactive: NCI-H226 > 100 µM | Malme-3M > 100 µM | OVCAR-4 > 100 µM | SK-MEL-2 > 100 µM | U-251 > 100 µM | SNB-19 > 100 µM | SK-MEL-28 > 100 µM | UACC-62 > 100 µM | 786-0 > 100 µM | HCT-116 > 100 µM | CAKI-1 > 100 µM | KM-20L2 > 100 µM

C=CCC12CC(=O)CCC1CC(=O)C2 (stereo not given)
inactive: NCI-H226 > 100 µM | Malme-3M > 100 µM | OVCAR-4 > 100 µM | SK-MEL-2 > 100 µM | U-251 > 100 µM | SNB-19 > 100 µM | SK-MEL-28 > 100 µM | UACC-257 > 100 µM | A498 > 100 µM | UACC-62 > 100 µM | 786-0 > 100 µM | HCT-116 > 100 µM | CAKI-1 > 100 µM | KM-20L2 > 100 µM

COc1ccc(C(=O)C(C(=O)CCC(=O)Nc2cccc(C(F)(F)F)c2)c2ccccc2)cc1 (stereo not given)
inactive: NCI-H226 > 100 µM | Malme-3M > 100 µM | OVCAR-4 37.7 µM | SF-295 93.5 µM | SK-MEL-2 96.8 µM | U-251 > 100 µM | SNB-19 > 100 µM | SK-MEL-28 > 100 µM | UACC-257 62.7 µM | A498 > 100 µM | UACC-62 91.8 µM | 786-0 > 100 µM | HCT-116 80.7 µM | CAKI-1 > 100 µM | KM-20L2 > 100 µM

C[C@H](NC(=O)OC1C2C=CC(O)C1CC2)c1ccccc1 (stereo not given in full)
inactive: NCI-H226 > 100 µM | Malme-3M > 100 µM | OVCAR-4 > 100 µM | SF-295 > 100 µM | SK-MEL-2 > 100 µM | U-251 > 100 µM | SNB-19 > 100 µM | SK-MEL-28 > 100 µM | UACC-257 > 100 µM | A498 > 100 µM | UACC-62 > 100 µM | 786-0 38.1 µM | HCT-116 > 100 µM | CAKI-1 > 100 µM | KM-20L2 45.3 µM

Cc1ccc(C2C(Cl)C(=O)N2n2cnc3ccccc3c2=O)cc1 (stereo not given)
inactive: NCI-H226 26 µM | Malme-3M > 100 µM | OVCAR-4 65.9 µM | SF-295 > 100 µM | SK-MEL-2 > 100 µM | U-251 > 100 µM | SNB-19 44 µM | SK-MEL-28 > 100 µM | UACC-257 42 µM | UACC-62 99.8 µM | 786-0 > 100 µM | HCT-116 89.3 µM | CAKI-1 > 100 µM | KM-20L2 > 100 µM

CCNC1=Nc2ccccc2-n2c(nn3nc4ccccc4c23)N1CC
inactive: NCI-H226 > 100 µM | OVCAR-4 > 100 µM | SF-295 37.3 µM | U-251 > 100 µM | SNB-19 > 100 µM | SK-MEL-28 94.2 µM | UACC-257 > 100 µM | A498 > 100 µM | UACC-62 > 100 µM | 786-0 > 100 µM | HCT-116 > 100 µM | KM-20L2 > 100 µM

O=C(/C=C/C1C(=O)NC(=O)NC1=O)CC(=O)C(=O)Nc1cc(Cl)c(Cl)cc1Cl
inactive: NCI-H226 > 100 µM | Malme-3M > 100 µM | OVCAR-4 > 100 µM | SF-295 > 100 µM | SK-MEL-2 > 100 µM | U-251 > 100 µM | SNB-19 > 100 µM | SK-MEL-28 > 100 µM | UACC-257 > 100 µM | A498 > 100 µM | UACC-62 > 100 µM | 786-0 > 100 µM | HCT-116 > 100 µM | CAKI-1 > 100 µM | KM-20L2 > 100 µM

O=C(O)CNS(=O)(=O)c1ccc(NC(=O)c2ccc([N+](=O)[O-])cc2)cc1
inactive: NCI-H226 > 100 µM | Malme-3M > 100 µM | OVCAR-4 > 100 µM | SF-295 > 100 µM | SK-MEL-2 > 100 µM | U-251 > 100 µM | SNB-19 > 100 µM | SK-MEL-28 > 100 µM | UACC-257 > 100 µM | A498 > 100 µM | UACC-62 > 100 µM | 786-0 > 100 µM | CAKI-1 > 100 µM | KM-20L2 > 100 µM

OCC1O[C@H](O[C@@H]2CCCN3CC(O)C(O)[C@@H]23)C(O)C(O)C1O (stereo not given in full)
inactive: NCI-H226 > 100 µM | Malme-3M > 100 µM | OVCAR-4 > 100 µM | SF-295 > 100 µM | SK-MEL-2 > 100 µM | U-251 > 100 µM | SK-MEL-28 > 100 µM | UACC-257 > 100 µM | A498 > 100 µM | UACC-62 > 100 µM | HCT-116 > 100 µM | CAKI-1 > 100 µM | KM-20L2 > 100 µM

CCC(=O)O[C@@H]1C2C(OC(C)=O)C34COC(C)([C@@H]3C3C(C[C@]3(C)OC(C)=O)[C@@H](OC(=O)c3ccccc3)C4=O)[C@H](OC(C)=O)[C@@]2(OC(C)=O)C[C@@H]1C (stereo not given in full)
inactive: NCI-H226 20 µM | Malme-3M 36.6 µM | OVCAR-4 21.1 µM | SF-295 12.4 µM | SK-MEL-2 79.4 µM | U-251 10.4 µM | SNB-19 14 µM | SK-MEL-28 > 100 µM | UACC-257 87.9 µM | UACC-62 75.9 µM | 786-0 11.7 µM | HCT-116 30.7 µM | CAKI-1 > 100 µM | KM-20L2 > 100 µM

Cc1cc(=O)oc2cc(O)ccc12 [HYMECROMONE]
inactive: MCF7 > 100 µM | NCI-H226 > 100 µM | T47D > 100 µM | Malme-3M > 100 µM | OVCAR-4 > 100 µM | SF-295 > 100 µM | SK-MEL-2 > 100 µM | MDA-N > 100 µM | U-251 > 100 µM | BT-549 88.3 µM | SNB-19 > 100 µM | SK-MEL-28 > 100 µM | UACC-257 > 100 µM | Hs-578T > 100 µM | A498 65.8 µM | UACC-62 > 100 µM | 786-0 > 100 µM | HCT-116 > 100 µM | CAKI-1 > 100 µM

COC[C@@H]1Cc2cc(OC)c3c(c2[C@H](c2ccc(OC)c(OC)c2)[C@H]1COC)OCO3 [HYPOPHYLLANTHIN]
inactive: Malme-3M 78.9 µM | SF-295 57.5 µM | SK-MEL-2 > 100 µM | U-251 > 100 µM | SNB-19 > 100 µM | SK-MEL-28 > 100 µM | UACC-257 > 100 µM | A498 > 100 µM | UACC-62 > 100 µM | HCT-116 99.8 µM | KM-20L2 > 100 µM
